# Values of other authors in patent publication US10179914B2, “CDC25A inhibitor for the treatment of drug resistant cancer or for the prevention of tumor relapse” (INSERM (INSTITUT NATIONAL DE LA SANTÉ ET DE LA RECHERCHE …, priority 2014, dated 2019).
# Experiments:
# Cdc25B = biological target: T1, Cdc25B (Homo sapiens, UniProt P30305); details: cited from earlier work
# T1 sequence (P30305 1-580): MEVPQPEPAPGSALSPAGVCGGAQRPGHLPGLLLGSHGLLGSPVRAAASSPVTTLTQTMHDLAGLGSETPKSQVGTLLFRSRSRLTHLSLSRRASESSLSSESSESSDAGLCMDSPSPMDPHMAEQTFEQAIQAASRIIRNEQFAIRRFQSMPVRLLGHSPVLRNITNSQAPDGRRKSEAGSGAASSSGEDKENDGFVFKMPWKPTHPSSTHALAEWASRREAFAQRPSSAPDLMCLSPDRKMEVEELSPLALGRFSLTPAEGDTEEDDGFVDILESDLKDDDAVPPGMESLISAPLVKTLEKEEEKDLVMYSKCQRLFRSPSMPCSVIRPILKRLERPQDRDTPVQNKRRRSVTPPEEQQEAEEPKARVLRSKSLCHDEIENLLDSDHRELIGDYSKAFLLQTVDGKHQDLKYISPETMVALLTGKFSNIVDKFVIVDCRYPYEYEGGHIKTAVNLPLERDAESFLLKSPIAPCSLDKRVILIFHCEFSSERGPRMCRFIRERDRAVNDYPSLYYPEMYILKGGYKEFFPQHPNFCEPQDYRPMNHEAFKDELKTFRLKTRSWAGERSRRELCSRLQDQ
# human LNCaP xenografts = details: intravenous and oral routes; cited from earlier work
# Mia-Paca-2 tumors = details: intravenous and oral routes; cited from earlier work
smiles,measurement,setting,value
Cc1nc2c(s1)C(=O)C=C(NCCCN(C)CCCNC1=CC(=O)c3nc(-c4cc(F)ccc4F)oc3C1=O)C2=O [IRC-083864],IC50 Cdc25 enzyme type B2,Cdc25B; B2,nanomolar range
same,IC50 Cdc25 enzyme type B3,Cdc25B; B3,nanomolar range
same,growth of human LNCaP xenografts,human LNCaP xenografts,reduces the growth
same,growth of human Mia Paca-2 xenografts,Mia-Paca-2 tumors,reduces the growth
